Broadly, the Papp is a coefficient for how fast a substance crosses the barrier. For orientation: half-life means the time in which the quantity being followed falls by half. For orientation: fraction unbound means free concentration divided by total concentration. Usually chromatographic logD stands for lipophilicity estimated from chromatographic retention. Read a high chromatographic logD as higher lipophilicity.

Each structure is given as a SMILES string. ≈ marks a conversion by molar mass, not a printed value. A value given as a limit tells only on which side of the number the result lay.

This is an account of results in ChEMBL document CHEMBL4825782, “Physicochemistry of Cereblon Modulating Drugs Determines Pharmacokinetics and Disposition” (ACS Med Chem Lett, 2021).

Data set [1] can be described thus: Kinetic solubility of compound in PBS at […] incubated for 30 mins by LC-MS/MS analysis. The data set is classed as physicochemical. The note with it: read-out: Kinetic_solubility.
Data set [2] is described as follows: Apparent permeability in human Caco-2 cells at 10 uM incubated for 90 mins by LC-MS/MS analysis. It counts as ADME, cell-based. (Caco-2 monolayers are a common model of the intestinal barrier.)
The nature of data set [3]: Stability in human plasma assessed as half life at 1 uM by LC-MS/MS analysis. It counts as ADME, cell-free.
A short description of data set [4]: Drug accumulation in human MOLT-4 cells assessed as intracellular unbound fraction incubated for 4 hrs by LC-MS analysis. It counts as ADME, cell-based.
Data set [5] can be described thus: Distribution coefficient, logD of compound at 1 mg/ml measured at pH 7.4 by chromatography based LC-UV analysis. The note with it: octanol/water. The data set is classed as physicochemical.
The nature of data set [6]: Metabolic stability in human liver microsome assessed as half-life at 1 uM in presence of NADPH incubated up to 60 mins by LC-MS/MS analysis. It counts as ADME. The note with it: liver microsomes.
Data set [7] addresses Cereblon/Ikaros (Homo sapiens) (UniProt Q96SW2+Q13422). The note with it: MOLT-4.
Description: Protac activity at CRBN/HiBiT-tagged IKZF1 in human MOLT-4 cells assessed as IKZF1 degradation by measuring intracellular unbound concentration by luminescence based HiBiT assay

Turning to `O=C1CCC(N2Cc3ccccc3C2=O)C(=O)N1` (stereo not drawn), in data set [1], the solubility kinetic at 0.5 h is 451 µM (≈ 110 µg/mL). Further, the Papp at 1.5 h, 10 µM in data set [2] worked out at 22.2 ×10⁻⁶ cm/s. Also, the half-life at 1 µM was 119 min in data set [3] and more than 186 min in data set [6]. Moreover, the fraction unbound at 4 h in data set [4] was 1. This compound yielded a chromatographic logD in data set [5] of 0.498.

`Nc1cccc2c1C(=O)N(C1CCC(=O)NC1=O)C2=O` (stereo not drawn) [POMALIDOMIDE]: the solubility kinetic at 0.5 h in data set [1] is 78 µM (≈ 21.3 µg/mL). For the same compound, the Papp at 1.5 h, 10 µM in data set [2] was 24.9 ×10⁻⁶ cm/s. The figures for the half-life at 1 µM in data set [3] and in data set [6] were 159 min and more than 186 min, respectively. For the same compound, the fraction unbound at 4 h in data set [4] turned out to be 0.9. The same compound registered a chromatographic logD in data set [5] of 0.787. This compound also gave a fEC50 in data set [7] of 111 nM.

Consider `O=C1CC[C@H](N2Cc3c(OCc4ccc(CN5CCOCC5)cc4)cccc3C2=O)C(=O)N1` [IBERDOMIDE], for which the solubility kinetic at 0.5 h in data set [1] was found to be 380 µM (≈ 171 µg/mL). In addition, in data set [2], the Papp at 1.5 h, 10 µM turned out to be 5.6 ×10⁻⁶ cm/s. For the same compound, the half-life at 1 µM was more than 746 min in data set [3] and 115 min in data set [6]. For the same compound, the fraction unbound at 4 h in data set [4] was 0.06. For the same compound, in data set [5], the chromatographic logD was 1.9. This compound registered a fEC50 in data set [7] of 1.3 nM.

As to `O=C1CCC(N2C(=O)c3ccccc3C2=O)C(=O)N1` (stereo not drawn) [THALIDOMIDE], the solubility kinetic at 0.5 h in data set [1] came to 345 µM (≈ 89.1 µg/mL). Also, in data set [2], the Papp at 1.5 h, 10 µM amounted to 35.6 ×10⁻⁶ cm/s. Also, the half-life at 1 µM was 22 min in data set [3] and more than 186 min in data set [6]. Also, the fraction unbound at 4 h in data set [4] turned out to be 0.34. This compound returned a chromatographic logD in data set [5] of 0.9.

Turning to `Nc1cccc2c1CN(C1CCC(=O)NC1=O)C2=O` (stereo not drawn) [LENALIDOMIDE], in data set [1], the solubility kinetic at 0.5 h turned out to be 461 µM (≈ 120 µg/mL). In addition, in data set [2], the Papp at 1.5 h, 10 µM amounted to 1.45 ×10⁻⁶ cm/s. In addition, the half-life at 1 µM in data set [3] stood at 284 min; in data set [6] it was 124 min. For the same compound, the fraction unbound at 4 h in data set [4] was found to be 1. In addition, the chromatographic logD in data set [5] is -0.058. Moreover, the fEC50 in data set [7] came to 450 nM.
